Patent US7368279B2, “Three dimensional bioengineered smooth muscle tissue and sphincters and methods therefor” (The Regents of The University of Michigan, priority 2004, dated 2008)

Tests used:
[1] = tested on: association of actin with myosin in sphincteric smooth muscle cells; assay: Immunoprecipitation/immunoblot: acetylcholine-induced association of actin with myosin; format: cell-based, rat; conditions: 0.1 μM acetylcholine
Experimental: (§1) Decreased association of actin with myosin and decreased association of tropomyosin with HSP27 in sphincteric smooth muscle cells from old rats (28-33 month old) was observed when compared to adult counterparts (18 months old). Whole cell lysates (WCL) from acetylcholine (0.1 μM) stimulated and unstimulated sphincteric smooth muscle cells of adult and old rats were extracted and immunoprecipitated as described previously (Somara et al, Amer. J. Physiol. 286(6): C1290-1301, 2004). Briefly, actin was immunoprecipited using an anti-actin antibody followed by immunoblotting with an anti-myosin antibody. […] To further investigate phospho-HSP27-induced reinstatement of smooth muscle cell contractile function, sphincter smooth muscle cells isolated from old rats IAS were transfected with phosphomimic-HSP27 as described previously. Whole cells lysates were extracted and immunoprecipitated as described previously (Somara et al, Amer. J. Physiol. 286(6): C1290-1301, 2004).

bioengineered IAS rings = assay: Isometric force of bioengineered IAS rings from adult, old and phosphomimic-HSP27 transfected old rat cells; format: cell-based
Experimental: To measure the passive baseline force, the differentiation media in the plate containing the bioengineered sphincter was replaced with 37° C. Krebs solution (NaCl (119 mM), KCl (4.6 mM), NaHCO3 (15 mM), CaCl2 (1.5 mM), MgCl2 (1.2 mM), […], and glucose (11 mM)) and the plate was placed on a heated aluminum platform, which maintained a temperature of 37° C. until the testing was complete. For contractility measurements, one end of the bioengineered sphincter was anchored by a stainless steel pin (10 mm×0.1 mm diameter) to the PDMS substrate within the plate, while another stainless steel pin was bent in the shape of a hook and attached by canning wax to a force transducer (resolution of 1.4 μN and range of 2mN) as previously described (Dennis et al., In Vitro Cellular & Developmental Biology Animal 36: 327-335, 2000, Macpherson et al., J Physiol 500: 523-533, 1997) and as depicted in FIG. 1 (Panels F and G). The bioengineered sphincter was stretched approximately 50% of its resting length using a three-axis micromanipulator. The ring was allowed to sit for 20 minutes in order to reestablish a stable baseline level of force (Pb), which was measured as the average baseline passive force preceding stimulation. All force measurements were collected at 100 samples/second for 60 seconds and recorded using a computer with LabVIEW data acquisition software (National Instruments, Austin, Tex.). A median filter of rank 2 was applied to all raw force data before being stored to minimize digitization noise without causing a phase delay for rapidly changing forces. The peak isometric force (ΔP) was determined by subtracting the Pb from the total force values. Specific force (sΔP) was calculated by dividing ΔP by the CSA. Data analysis was done using LabVIEW and Microsoft Excel software programs. Each measurement was repeated at least three times and the mean value was recorded. Bioengineered sphincter rings using smooth muscle cells isolated from IAS of adult and old rats were generated as described in Example 2 to study the molecular mechanism of aging on sphincteric smooth muscle. […] This corresponds to the previously described acetylcholine-induced contraction of human IAS muscle strips (16, 17, 27). […] Phosphomimic-HSP27 was introduced into the sphincteric smooth muscle cells from old rats. […] To test this hypothesis on a physiological level, bioengineered sphincter rings were made from phosphomimic-HSP27 transfected-IAS smooth muscle cells of old rats and the contractile response was assessed.

[2] = tested on: association of tropomyosin with HSP27 in sphincteric smooth muscle cells; assay: Immunoprecipitation/immunoblot: acetylcholine-induced association of tropomyosin with HSP27; format: cell-based, rat; conditions: 0.1 μM acetylcholine
Experimental: as §1

[3] = tested on: bioengineered colon smooth muscle rings; assay: Isometric force of bioengineered colon smooth muscle rings; format: cell-based, rabbit
Experimental: To develop a three dimensional physiological model of the smooth muscle cells in vitro, isolated colonic smooth muscle cells were used. Smooth muscle cells isolated from the colon of rabbits were seeded in a fibrin-based tissue construct as described in detail in Example 2. In this construct, the smooth muscle cells migrated and self-assembled in circumferential alignment. As the cells proliferated, the fibrin gel shrunk and contracted around a 5 mm diameter SYLGARD mold, resulting in a 3-D cylindrical ring of colonic tissue (smooth muscle ring). […] Maximal ΔP induced by acetylcholine stimulation was 17.8 μN, resulting in a specific force (sΔP) of […].

SMILES: CC(=O)OCC[N+](C)(C)C [acetylcholine]
- acetylcholine-induced association of actin with myosin ([1]; adult rats, 30 seconds): 243.70±8.20%
- acetylcholine-induced association of actin with myosin ([1]; adult rats, 4 minutes): 274.34±10.43%
- acetylcholine-induced association of actin with myosin ([1]; old rats, 30 sec): 175.32±10.12%
- acetylcholine-induced association of actin with myosin ([1]; old rats, 4 minutes): 231.79±10.45%
- maximum force of old rings, fold less than adult rings (FIG. 5 panel B) (bioengineered IAS rings; 10^−6 M acetylcholine): approximately 3 fold
- average ΔP / force generated (bioengineered IAS rings; adult rat IAS rings, 10^−6 M acetylcholine): 8.925±2.4 μN
- maximum force generated (FIG. 5 panel A) (bioengineered IAS rings; adult rat rings, n=3): 10.4±1.27
- force generated (bioengineered IAS rings; old rat IAS rings, 10^−6 M acetylcholine): 5.55±1.1 μN
- maximum force generated (FIG. 5 panel A) (bioengineered IAS rings; old rat rings, n=4): 5.5±1.09
- less force generated by old rings than adult rings (bioengineered IAS rings; stimulated with acetylcholine): approximately 50%
- acetylcholine-induced association of tropomyosin with HSP27 ([2]; adult rats, 30 seconds): 218.67±5.48%
- acetylcholine-induced association of tropomyosin with HSP27 ([2]; adult rats, 4 minutes): 268.39±6.38%
- acetylcholine-induced association of tropomyosin with HSP27 ([2]; old rats, 30 sec): 149.93±8.60%
- acetylcholine-induced association of tropomyosin with HSP27 ([2]; old rats, 4 minutes): 223.21±7.46%
- maximal ΔP induced by acetylcholine stimulation [3]: 17.8 μN
